Measurements as given in US9243035B2, “Peptides effective in the treatment of conditions requiring the removal or destruction of cells” (NYMOX CORPORATION, priority 2013, dated 2016).
No end group written: not given here.

Key:
[1] = system: tissue at sites of injection (liver, prostate, extremity skeletal muscle); assay: Injection of peptide into liver, prostate and extremity skeletal muscle of rats, histopathology and prostate volume at 72 hours; assay type: in vivo, Sprague-Dawley male rats; design: key to Histological Changes of Cell Death at 72 Hours: −: Absent; +: Present, Minimal; ++: Present, Moderate; +++: Present, Moderate and Diffuse; ++++: Present, Diffuse and Extensive; conditions: rat; for reduction in prostate volume compared to controls: 100 to 400 μL of 1 mg/mL in saline, sacrificed at 72 hours, average; for Histological Changes of Cell Death at 72 Hours: 72 hours after injection; for histopathological effect on tissue at sites of injection: liver, prostate, muscle, 72 hours
Protocol: After open laparotomy under general anesthesia, 8 normal 3 month old Sprague-Dawley male rats were injected in liver and in prostate, and in extremity skeletal muscle, with peptide NYMAP1385 in saline in quantities of 100 to 400 μL at a concentration of 1 mg/mL delivered from plastic syringes through stainless steel 26 gauge needles.
The individual foci of infiltration were excised, fixed in 10% formalin, embedded in paraffin, and stained and examined by standard histopathological methods. For each animal the entire prostate gland was embedded and sectioned. All stained sections were examined histologically and measured. For each prostate at least 4 histological sections were examined, and for each histological section two cross-sectional diameters (D) at 90° from each other were measured (total of ≧4 measurements per prostate). The mean diameter from these measurements for each prostate was used to estimate volume according to V=4/3*π(D/2)^3 […]
(§1) Histological changes were assessed on the following scale: −Absent • +Present, Minimal • ++Present, Moderate • +++Present, Moderate and Diffuse • ++++Present, Diffuse and Extensive

rat prostate = assay: Intraprostatic infusion of peptide in rats, histology and prostate volume after 7 days; assay type: in vivo, Sprague-Dawley rats; design: key to Histological Changes of Cell Death at 7 Days: −: Absent; +: Present, Minimal; ++: Present, Moderate; +++: Present, Moderate and Diffuse; ++++: Present, Diffuse and Extensive; conditions: for histological effect on prostate at sites of injection: rat prostate, 7 days; for Histological Changes of Cell Death at 7 Days / reduction in prostate volume compared to controls: rat; for Histological Changes of Cell Death at 7 Days: 7 days after intraprostatic injection; for reduction in prostate volume compared to controls: intraprostatic, 300 μl of 1 mg/mL in PBS pH 7.4, sacrificed after 7 days, average
Protocol: Seven normal male 300 gram weight Sprague-Dawley rats were given general anesthesia and given peptide NYMAP1385 by intraprostatic infusion. The injections consisted of 300 μl of peptide NYMAP1385 1 mg/mL in PBS pH 7.4. […] Rats were painlessly sacrificed after 7 days. Prostate glands were dissected, fixed in 10% buffered formalin for 24 hours, embedded in paraffin, sectioned, and stained with H & E. For each animal the entire prostate gland was embedded and sectioned. All stained sections were examined histologically. For each animal the entire prostate gland was embedded and sectioned. All stained sections were examined histologically and measured. For each prostate at least 2 histological sections were examined, and for each histological section two cross-sectional diameters (D) at 90° from each other were measured (total of ≧4 measurements per prostate). The mean diameter from these measurements for each prostate was used to estimate volume according to V=4/3*π*(D/2)^3
Eight normal male 300 gram Sprague-Dawley rats were injected in the prostate as in the above Example 2, except they were injected with peptide NYMAP13134. Rats were painlessly sacrificed after 7 days and their prostate glands were examined as in Example 2. For each animal the entire prostate gland was embedded and sectioned. All stained sections were examined histologically and measured. For each prostate at least 2 histological sections were examined, and for each histological section two cross-sectional diameters (D) at 90° from each other were measured (total of ≧4 measurements per prostate). The mean diameter from these measurements for each prostate was used to estimate volume according to V=4/3*π*(D/2)^3
as §1

FHDLKKHCIK [NYMAP13134]
reduction in prostate volume compared to controls [1]: 72.5% | Histological Changes of Cell Death at 72 Hours [1]: +++ | histopathological effect on tissue at sites of injection [1]: cell death and necrosis of tissue at the injection sites | histological effect on prostate at sites of injection (rat prostate): significant cell loss and atrophy in the prostate | Histological Changes of Cell Death at 7 Days (rat prostate): ++++ | reduction in prostate volume compared to controls (rat prostate): 75.2%

IDLLQGRTRNRC [NYMAP1385]
reduction in prostate volume compared to controls [1]: 57.8% | Histological Changes of Cell Death at 72 Hours [1]: ++++ | histopathological effect on tissue at sites of injection [1]: variable amounts of apoptosis and necrosis of tissue at the injection sites | histological effect on prostate at sites of injection (rat prostate): necrosis of tissue at the injection sites with loss of glandular epithelium, flattening and atrophy | Histological Changes of Cell Death at 7 Days (rat prostate): ++ | reduction in prostate volume compared to controls (rat prostate): 44.8%
